Read-outs that look alike come from different tables or passages of the source.
Key:
[1] = test system: MCF7 cells expressing mutant estrogen receptor Tyr 537 Ser; assay: Test B: cell proliferation/viability assay (CellTiter-Glo) on MCF7 Tyr 537 Ser mutant; type: cell-based; settings: Homo sapiens, MCF7, 168 h, MCF7 cells expressing ER Tyr 537 Ser mutant, 7 days of compound exposure, read-out: proliferation MCF7 Y537S IC50
Procedure, shortened: (§1)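 Compound exposure lasted 7 days (3-0.000001 μM final, 9 points) in phenol red-free MEM with 5% charcoal dextran-stripped FBS. The mutant lines grew without estradiol. Luminescent signal, minus medium-only background, was expressed as percent of untreated cells.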

[2] = test system: MCF7 cells (breast tumor cells) WT; assay: Test B: cell proliferation/viability assay (CellTiter-Glo) on MCF7 WT; type: cell-based; settings: Homo sapiens, MCF7, 168 h, 7 days of compound exposure
Procedure, shortened: as §1

[3] = target: His6-ERα298-554 WT (ERα ligand-binding domain) (Homo sapiens (Human), UniProt P03372); assay: Test A: biochemical antagonist activity, LanthaScreen TR-FRET ERα coactivator assay, WT; settings: read-out: Antagonism WT IC50
Sequence of His6-ERα298-554 WT (ERα ligand-binding domain) (P03372 298-554): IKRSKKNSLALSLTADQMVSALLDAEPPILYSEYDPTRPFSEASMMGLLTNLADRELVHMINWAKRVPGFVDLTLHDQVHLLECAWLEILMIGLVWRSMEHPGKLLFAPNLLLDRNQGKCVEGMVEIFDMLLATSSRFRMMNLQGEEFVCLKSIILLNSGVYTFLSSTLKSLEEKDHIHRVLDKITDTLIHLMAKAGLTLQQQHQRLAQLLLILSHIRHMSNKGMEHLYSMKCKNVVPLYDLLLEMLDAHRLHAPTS
Procedure, shortened: (§2)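 IC50 values come from a 4-parameter logistic fit of the 520:495 nm TR-FRET ratio after overnight room-temperature incubation. The mix held 0.5 nM ERα 298–554 LBD, Tb-labelled anti-His6 antibody, 250 nM PGC1a peptide and 3 nM or 10 nM estradiol, pH 7.4 phosphate buffer with DTT.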

[4] = target: ERα in MCF7 cells (Homo sapiens (Human), UniProt P03372); assay: Test C: estrogen receptor degradation activity, ERα in cell western assay in MCF7 cells; type: cell-based; settings: for DC50: 4 hours post compound addition, ERα in cell western, read-out: Degradation IC50; for % Degradation at 3 μM: 4 hours, relative to fulvestrant
Sequence of ERα in MCF7 cells (P03372 whole entry): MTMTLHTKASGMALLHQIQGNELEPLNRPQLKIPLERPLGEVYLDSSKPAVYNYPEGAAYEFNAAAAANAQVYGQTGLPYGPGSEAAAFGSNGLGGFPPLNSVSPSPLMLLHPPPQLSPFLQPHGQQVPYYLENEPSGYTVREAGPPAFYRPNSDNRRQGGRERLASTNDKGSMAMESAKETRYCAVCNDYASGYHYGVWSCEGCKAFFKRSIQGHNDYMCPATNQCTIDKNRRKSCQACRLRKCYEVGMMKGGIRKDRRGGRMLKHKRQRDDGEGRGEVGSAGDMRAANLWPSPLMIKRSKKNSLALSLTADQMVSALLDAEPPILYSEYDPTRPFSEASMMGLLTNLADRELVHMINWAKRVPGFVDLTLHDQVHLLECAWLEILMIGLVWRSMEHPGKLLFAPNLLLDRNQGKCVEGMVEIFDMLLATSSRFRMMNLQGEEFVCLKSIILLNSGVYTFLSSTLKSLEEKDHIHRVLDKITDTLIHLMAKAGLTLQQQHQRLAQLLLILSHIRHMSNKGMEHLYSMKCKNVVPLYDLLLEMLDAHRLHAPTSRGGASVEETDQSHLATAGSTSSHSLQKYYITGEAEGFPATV
Procedure, shortened: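 Steps: seed MCF7 in phenol red-free medium containing 5% charcoal-dextran stripped FBS; next day add compound, final 3–0.000018 μM; after 4 h fix with 5% formalin plus 0.1% Triton; stain ERα overnight, then secondary at 37 °C for 60 min with Syto-64 at 2 μM; scan green and red intensities.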

[5] = target: His6-ERα298-554 Y537S mutant (ERα ligand-binding domain) (Homo sapiens (Human), UniProt P03372, Y537S); assay: Test A: biochemical antagonist activity, LanthaScreen TR-FRET ERα coactivator assay, Y537S mutant; settings: read-out: Antagonism Y537S IC50
Sequence of His6-ERα298-554 Y537S mutant (ERα ligand-binding domain) (P03372 298-554 Y537S): as the sequence (P03372 298-554) above, with Y240S counted along it
Procedure, shortened: as §2

[6] = test system: MCF7 cells expressing mutant estrogen receptor Asp 538 Gly; assay: Test B: cell proliferation/viability assay (CellTiter-Glo) on MCF7 Asp 538 Gly mutant; type: cell-based; settings: Homo sapiens, MCF7, 168 h, MCF7 cells expressing ER Asp 538 Gly mutant, 7 days of compound exposure, read-out: proliferation MCF7 D538G IC50
Procedure, shortened: as §1

[7] = target: His6-ERα298-554 D538G mutant (ERα ligand-binding domain) (Homo sapiens (Human), UniProt P03372, D538G); assay: Test A: biochemical antagonist activity, LanthaScreen TR-FRET ERα coactivator assay, D538G mutant; settings: read-out: Antagonism D538G IC50
Sequence of His6-ERα298-554 D538G mutant (ERα ligand-binding domain) (P03372 298-554 D538G): as the sequence (P03372 298-554) above, with D241G counted along it
Procedure, shortened: as §2

[8] = asterisk (*): protocol using 10 nM estradiol

Row | Compound | IC50 [1] | IC50 [2] | IC50 [3, 8] | DC50 [4] | % Degradation at 3 μM [4] | IC50 [5, 8] | IC50 [6] | IC50 [7, 8] | IC50 ([3]; protocol with 3 nM estradiol) | IC50 ([5]; protocol with 3 nM estradiol) | IC50 ([7]; protocol with 3 nM estradiol)
1 | [O-][S+]1CCC(c2ccc(OC(F)(F)F)cc2)=C(c2ccc(O[C@H]3CCN(CCCF)C3)cc2)c2ccc(O)cc21 (stereo partly drawn) [Example 225, 5-[4-[(3S)-1-(3-fluoropropyl)pyrrolidin-3-yl]oxyphenyl]-1-oxo-4-[4-(trifluoromethoxy)phenyl]-2,3-dihydro-benzothiepin-8-ol] | 249 nM | 18 nM | 750 nM | 6 nM | 82% | > 4000 nM | 36 nM | > 4000 nM | – | – | –
2 | Cc1ccc(C2=C(c3ccc(O[C@H]4CCN(CCCF)C4)nc3)c3ccc(O)cc3CCC2)c(F)c1 [Example 237, 6-(2-fluoro-4-methyl-phenyl)-5-[6-[(3S)-1-(3-fluoropropyl)pyrrolidin-3-yl]oxy-3-pyridyl]-8,9-dihydro-7H-benzo[7]annulen-2-ol] | 5 nM | 0.3 nM | 0.6 nM | 0.2 nM | 92% | 5 nM | 0.7 nM | 7 nM | – | – | –
3 | Oc1ccc2c(c1)CCCC(c1ccc(Cl)cc1Cl)=C2c1cnc(O[C@H]2CCN(CCCF)C2)nc1 [Example 238, 6-(2,4-dichlorophenyl)-5-[2-[(3S)-1-(3-fluoropropyl)pyrrolidin-3-yl]oxypyrimidin-5-yl]-8,9-dihydro-7H-benzo[7]annulen-2-ol] | 3 nM | 0.3 nM | 3 nM | 0.5 nM | 87% | 33 nM | 0.5 nM | 59 nM | – | – | –
4 | Oc1ccc2c(c1)CCCC(c1ccc(Cl)cc1Cl)=C2c1ccc(O[C@H]2CCN(CCCF)C2)nc1 [Example 239, 6-(2,4-dichlorophenyl)-5-[6-[(3S)-1-(3-fluoropropyl)pyrrolidin-3-yl]oxy-3-pyridyl]-8,9-dihydro-7H-benzo[7]annulen-2-ol] | 3 nM | 0.3 nM | 13 nM | 0.6 nM | 87% | 9 nM | 1 nM | 13 nM | – | – | –
5 | CCOc1ccc(C2=C(c3ccc(O[C@H]4CCN(CCCF)C4)nc3)c3ccc(O)cc3CCC2)c(F)n1 [Example 240, 6-(6-ethoxy-2-fluoro-3-pyridyl)-5-[6-[(3S)-1-(3-fluoropropyl)pyrrolidin-3-yl]oxy-3-pyridyl]-8,9-dihydro-7H-benzo[7]annulen-2-ol] | 3 nM | 0.3 nM | 6 nM | 0.3 nM | 89% | 4 nM | 0.5 nM | 6 nM | – | – | –
6 | Oc1ccc2c(c1)CCCC(c1ccc(OC(F)F)c(F)c1)=C2c1ccc(O[C@H]2CCN(CCCF)C2)nc1 [Example 241, 6-[4-(difluoromethoxy)-3-fluoro-phenyl]-5-[6-[(3S)-1-(3-fluoropropyl)pyrrolidin-3-yl]oxy-3-pyridyl]-8,9-dihydro-7H-benzo[7]annulen-2-ol] | 2 nM | 0.1 nM | 1 nM | 0.2 nM | 85% | 16 nM | 0.2 nM | 27 nM | – | – | –
7 | CC1(C)Cc2cc(C3=C(c4ccc(O[C@H]5CCN(CCCF)C5)nc4)c4ccc(O)cc4CCC3)ccc2N1 [Example 242, 6-(2,2-dimethylindolin-5-yl)-5-[6-[(3S)-1-(3-fluoropropyl)pyrrolidin-3-yl]oxy-3-pyridyl]-8,9-dihydro-7H-benzo[7]annulen-2-ol] | 11 nM | 0.7 nM | 1 nM | 0.8 nM | 83% | 7 nM | 2 nM | 9 nM | – | – | –
8 | Oc1ccc2c(c1)CCCC(c1ccc(Cl)c(F)c1)=C2c1cnc(O[C@H]2CCN(CCCF)C2)cn1 [Example 243, 6-(4-chloro-3-fluoro-phenyl)-5-[5-[(3S)-1-(3-fluoropropyl)pyrrolidin-3-yl]oxypyrazin-2-yl]-8,9-dihydro-7H-benzo[7]annulen-2-ol] | 3 nM | 0.2 nM | 12 nM | 0.3 nM | 91% | 179 nM | 0.5 nM | 386 nM | – | – | –
9 | Cc1ccc(C2=C(c3cnc(O[C@H]4CCN(CCCF)C4)nc3)c3ccc(O)cc3CCC2)c(F)c1 [Example 244, 6-(2-fluoro-4-methyl-phenyl)-5-[2-[(3S)-1-(3-fluoropropyl)pyrrolidin-3-yl]oxypyrimidin-5-yl]-8,9-dihydro-7H-benzo[7]annulen-2-ol] | 6 nM | 0.9 nM | 3 nM | 0.4 nM | 92% | 34 nM | 2 nM | 67 nM | – | – | –
10 | Oc1ccc2c(c1F)CCCC(c1ccc(Cl)cc1Cl)=C2c1ccc(O[C@H]2CCN(CCCF)C2)nc1 [Example 245, 6-(2,4-dichlorophenyl)-1-fluoro-5-[6-[(3S)-1-(3-fluoropropyl)pyrrolidin-3-yl]oxy-3-pyridyl]-8,9-dihydro-7H-benzo[7]annulen-2-ol] | 3 nM | 0.3 nM | – | 0.5 nM | 87% | – | 0.1 nM | – | 0.4 nM | 3 nM | 4 nM
11 | CCOc1ccc(C2=C(c3cnc(O[C@H]4CCN(CCCF)C4)nc3)c3ccc(O)cc3CCC2)c(F)c1F [Example 246, 6-(4-ethoxy-2,3-difluoro-phenyl)-5-[2-[(3S)-1-(3-fluoropropyl)pyrrolidin-3-yl]oxypyrimidin-5-yl]-8,9-dihydro-7H-benzo[7]annulen-2-ol] | 7 nM | 0.4 nM | 2 nM | 0.5 nM | 82% | 26 nM | 0.4 nM | 42 nM | – | – | –
12 | O=C(O)c1ccc2c(c1)CCCC(c1ccc(Cl)cc1Cl)=C2c1ccc(O[C@H]2CCN(CCCF)C2)nc1 [Example 247, 6-(2,4-dichlorophenyl)-5-[6-[(3S)-1-(3-fluoropropyl)pyrrolidin-3-yl]oxy-3-pyridyl]-8,9-dihydro-7H-benzo[7]annulene-2-carboxylic acid] | 6 nM | 0.2 nM | 5 nM | 0.2 nM | 93% | 72 nM | 0.4 nM | 136 nM | – | – | –
13 | O=C(O)c1ccc2c(c1)CCCC(c1ccc(OC(F)F)c(F)c1)=C2c1ccc(O[C@H]2CCN(CCCF)C2)nc1 [Example 248, 6-[4-(difluoromethoxy)-3-fluoro-phenyl]-5-[6-[(3S)-1-(3-fluoropropyl)pyrrolidin-3-yl]oxy-3-pyridyl]-8,9-dihydro-7H-benzo[7]annulene-2-carboxylicacid] | 15 nM | 0.7 nM | 141 nM | 0.7 nM | 95% | 1920 nM | 1 nM | 3440 nM | – | – | –
14 | Oc1ccc2c(c1F)CCCC(c1ccc(OC(F)F)c(F)c1)=C2c1ccc(O[C@H]2CCN(CCCF)C2)nc1 [Example 249, 6-[4-(difluoromethoxy)-3-fluoro-phenyl]-1-fluoro-5-[6-[(3S)-1-(3-fluoropropyl)pyrrolidin-3-yl]oxy-3-pyridyl]-8,9-dihydro-7H-benzo[7]annulen-2-ol] | 4 nM | 0.3 nM | 1 nM | 0.3 nM | 87% | 14 nM | 0.6 nM | 24 nM | – | – | –
15 | Cc1cc(C2=C(c3ccc(O[C@H]4CCN(CCCF)C4)nc3)c3ccc(O)c(F)c3CCC2)ccc1Cl [Example 250, 6-(4-chloro-3-methyl-phenyl)-1-fluoro-5-[6-[(3S)-1-(3-fluoropropyl)pyrrolidin-3-yl]oxy-3-pyridyl]-8,9-dihydro-7H-benzo[7]annulen-2-ol] | 4 nM | 0.3 nM | 7 nM | 0.5 nM | 87% | 70 nM | 0.3 nM | 113 nM | – | – | –

Source: patent publication US11149031B2, “Substituted N-(3-fluoropropyl)-pyrrolidine compounds, processes for their preparation and therapeutic uses thereof” (SANOFI, priority 2016, dated 2021)
